Columns and labels:
Assay in all cases: Post-emergence herbicidal activity test (stem and leaf spray, pot culture)
Assay type in all cases: in vivo
Conditions in all cases: 3 weeks after spraying
Trifoliumre pensL. = system: Trifoliumre pensL.
Outline: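 Rates of 10, 5 and 2.5 g/mu were applied in a single spray-tower treatment to 2–3-leaf plants, thinned to 10 per pot. Formulation: acetone solution, Tween 80, 1.5 L/ha methyl oleate synergist. Weed response assessed after 3 further greenhouse weeks; mean of three experiments.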

Echinochloa crusgalli = system: Echinochloa crusgalli
Outline: (§1)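 Seeds soaked 6 h at 25 °C, germinated at 28 °C, sown in loam pots and thinned to 10 plants/pot. At 2–3 leaves, plants received a single spray-tower application of 10, 5 or 2.5 g/mu. Fresh-weight control was graded 0–5 after 3 weeks.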

Portulaca oleracea = system: Portulaca oleracea
Outline: as §1

Abutilon theophrasti = system: Abutilon theophrasti
Outline: as §1

Setaria viridis = system: Setaria viridis
Outline: as §1

Amaranthus retroflexus = system: Amaranthus retroflexus
Outline: as §1

Row | SMILES | Post-emergence herbicidal activity, Trifoliumre pensL. (grade) (Trifoliumre pensL.; dosage 2.5 g/mu) | Post-emergence herbicidal activity, Trifoliumre pensL. (grade) (Trifoliumre pensL.; dosage 5 g/mu) | Post-emergence herbicidal activity, Trifoliumre pensL. (grade) (Trifoliumre pensL.; dosage 10 g/mu) | Post-emergence herbicidal activity, E. crusgalli (grade) (Echinochloa crusgalli; dosage 2.5 g/mu) | Post-emergence herbicidal activity, E. crusgalli (grade) (Echinochloa crusgalli; dosage 5 g/mu) | Post-emergence herbicidal activity, E. crusgalli (grade) (Echinochloa crusgalli; dosage 10 g/mu) | Post-emergence herbicidal activity, P. oleracea (grade) (Portulaca oleracea; dosage 2.5 g/mu) | Post-emergence herbicidal activity, P. oleracea (grade) (Portulaca oleracea; dosage 5 g/mu) | Post-emergence herbicidal activity, P. oleracea (grade) (Portulaca oleracea; dosage 10 g/mu) | Post-emergence herbicidal activity, A. theophrasti (grade) (Abutilon theophrasti; dosage 2.5 g/mu) | Post-emergence herbicidal activity, A. theophrasti (grade) (Abutilon theophrasti; dosage 5 g/mu) | Post-emergence herbicidal activity, A. theophrasti (grade) (Abutilon theophrasti; dosage 10 g/mu) | Post-emergence herbicidal activity, S. viridis (grade) (Setaria viridis; dosage 2.5 g/mu) | Post-emergence herbicidal activity, S. viridis (grade) (Setaria viridis; dosage 5 g/mu) | Post-emergence herbicidal activity, S. viridis (grade) (Setaria viridis; dosage 10 g/mu) | Post-emergence herbicidal activity, A. retroflexus (grade) (Amaranthus retroflexus; dosage 2.5 g/mu) | Post-emergence herbicidal activity, A. retroflexus (grade) (Amaranthus retroflexus; dosage 5 g/mu) | Post-emergence herbicidal activity, A. retroflexus (grade) (Amaranthus retroflexus; dosage 10 g/mu)
1 | O=C1C2=C(CCCC2)C(=O)N1c1cc(OCc2nc(-c3ccc(Br)cc3Br)no2)c(Cl)cc1F [Compound A11] | 4 (Grade 4: the growth control rate is greater than or equal to 60% and less than 85%) | 5 (Grade 5: the growth control rate is greater than or equal to 85%) | 5 (Grade 5: the growth control rate is greater than or equal to 85%) | 1 (Grade 1: the growth control rate is greater than or equal to 5% and less than 20%) | 2 (Grade 2: the growth control rate is greater than or equal to 20% and less than 40%) | 3 (Grade 3: the growth control rate is greater than or equal to 40% and less than 60%) | 4 (Grade 4: the growth control rate is greater than or equal to 60% and less than 85%) | 5 (Grade 5: the growth control rate is greater than or equal to 85%) | 5 (Grade 5: the growth control rate is greater than or equal to 85%) | 5 (Grade 5: the growth control rate is greater than or equal to 85%) | 5 (Grade 5: the growth control rate is greater than or equal to 85%) | 5 (Grade 5: the growth control rate is greater than or equal to 85%) | 2 (Grade 2: the growth control rate is greater than or equal to 20% and less than 40%) | 3 (Grade 3: the growth control rate is greater than or equal to 40% and less than 60%) | 4 (Grade 4: the growth control rate is greater than or equal to 60% and less than 85%) | 5 (Grade 5: the growth control rate is greater than or equal to 85%) | 5 (Grade 5: the growth control rate is greater than or equal to 85%) | 5 (Grade 5: the growth control rate is greater than or equal to 85%)
2 | O=C1C2=C(CCCC2)C(=O)N1c1cc(OCc2nc(-c3ccccc3F)no2)c(Cl)cc1F [Compound A12] | 4 (Grade 4: the growth control rate is greater than or equal to 60% and less than 85%) | 5 (Grade 5: the growth control rate is greater than or equal to 85%) | 5 (Grade 5: the growth control rate is greater than or equal to 85%) | 1 (Grade 1: the growth control rate is greater than or equal to 5% and less than 20%) | 2 (Grade 2: the growth control rate is greater than or equal to 20% and less than 40%) | 3 (Grade 3: the growth control rate is greater than or equal to 40% and less than 60%) | 4 (Grade 4: the growth control rate is greater than or equal to 60% and less than 85%) | 5 (Grade 5: the growth control rate is greater than or equal to 85%) | 5 (Grade 5: the growth control rate is greater than or equal to 85%) | 5 (Grade 5: the growth control rate is greater than or equal to 85%) | 5 (Grade 5: the growth control rate is greater than or equal to 85%) | 5 (Grade 5: the growth control rate is greater than or equal to 85%) | 2 (Grade 2: the growth control rate is greater than or equal to 20% and less than 40%) | 3 (Grade 3: the growth control rate is greater than or equal to 40% and less than 60%) | 4 (Grade 4: the growth control rate is greater than or equal to 60% and less than 85%) | 5 (Grade 5: the growth control rate is greater than or equal to 85%) | 5 (Grade 5: the growth control rate is greater than or equal to 85%) | 5 (Grade 5: the growth control rate is greater than or equal to 85%)
3 | O=C1C2=C(CCCC2)C(=O)N1c1ccc(Cl)c(OCc2nc(-c3cc(F)cc(Br)c3)no2)c1F [Compound A13, 2-(3-(3-(3-(3-bromo-5-fluorophenyl)-1,2,4-oxadiazole-5-yl)methoxy)-4-chloro-2-fluorophenyl)-4,5,6,7-tetrahydro-1H-isoindole-1,3(2H)-dione] | 4 (Grade 4: the growth control rate is greater than or equal to 60% and less than 85%) | 5 (Grade 5: the growth control rate is greater than or equal to 85%) | 5 (Grade 5: the growth control rate is greater than or equal to 85%) | 1 (Grade 1: the growth control rate is greater than or equal to 5% and less than 20%) | 2 (Grade 2: the growth control rate is greater than or equal to 20% and less than 40%) | 3 (Grade 3: the growth control rate is greater than or equal to 40% and less than 60%) | 4 (Grade 4: the growth control rate is greater than or equal to 60% and less than 85%) | 5 (Grade 5: the growth control rate is greater than or equal to 85%) | 5 (Grade 5: the growth control rate is greater than or equal to 85%) | 5 (Grade 5: the growth control rate is greater than or equal to 85%) | 5 (Grade 5: the growth control rate is greater than or equal to 85%) | 5 (Grade 5: the growth control rate is greater than or equal to 85%) | 2 (Grade 2: the growth control rate is greater than or equal to 20% and less than 40%) | 3 (Grade 3: the growth control rate is greater than or equal to 40% and less than 60%) | 4 (Grade 4: the growth control rate is greater than or equal to 60% and less than 85%) | 5 (Grade 5: the growth control rate is greater than or equal to 85%) | 5 (Grade 5: the growth control rate is greater than or equal to 85%) | 5 (Grade 5: the growth control rate is greater than or equal to 85%)
